Measured values published in patent US20040254243A1 (priority 2001, published 2004).
Read-outs that look alike come from different tables or passages of the source.

Assays:
[1] = cited from earlier work
[2] = pKa values from the literature

Row | pKa ([2]; acetonitrile/water (3/1) and methanol/water (3/1)) | SMILES | pKa ([1]; acetonitrile/water (3/1)) | pKa ([1]; methanol/water (3/1)) | pK, mean value ([2]; mean of pK1 and pK2)
1 | ~5.5 | CC(C(=O)O)c1cccc(C(=O)c2ccccc2)c1 (stereo not shown) [ketoprofen, 2-(3-benzoylphenyl)propionic acid] | 5.02 | 5.94 | –
2 | – | N=C(N)NCCC[C@H](N)C(=O)O [arginine] | – | – | about 5.6
